# Measurements reported in patent US7078403B1, “Antiviral agents” (Biota Scientific Management Pty Ltd., priority 1999, dated 2006).
# Assays:
# HRV type 1A = assay: Inhibition of viral cytopathic effect (CPE), visual scoring or neutral red, HRV type 1A in MRC-5 cells; format: cell-based, human rhinovirus; settings: for Activity on Rhinovirus Type 1A EC50: HRV type 1A in MRC-5 cells, CPE inhibition; for Activity on Rhinovirus Type 1A SI: selectivity index = CC50 or MTC divided by EC50, HRV type 1A, MRC-5 cells
# HRV type 2 = assay: Inhibition of viral cytopathic effect (CPE), visual scoring or neutral red, HRV type 2 in KB cells; format: cell-based, human rhinovirus; settings: for Activity on Rhinovirus Type 2 EC50: HRV type 2 in KB cells, CPE inhibition; for Activity on Rhinovirus Type 2 SI: selectivity index = CC50 or MTC divided by EC50, HRV type 2, KB cells
# [1] = tested on: human embryo lung (MRC-5) cells; assay: Cytotoxicity (CC50 or MTC) in uninfected MRC-5 cells; settings: unit not given
smiles,measurement,setting,value
CCON=C(C)c1ccc(OCCC2CCN(c3ccc(Cl)nn3)CC2)cc1 [Compound 3],Activity on Rhinovirus Type 1A EC50,HRV type 1A,0.005 µg/mL
same,Activity on Rhinovirus Type 1A SI,HRV type 1A,1841
same,Activity on Rhinovirus Type 2 EC50,HRV type 2,0.01 µg/mL
same,Activity on Rhinovirus Type 2 SI,HRV type 2,>100
same,Activity on Rhinovirus Type 1A MTC,[1],>10.0
CCON=C(C)c1ccc(OCCC2CCN(c3ccc(C)nn3)CC2)cc1 [Compound 4],Activity on Rhinovirus Type 1A EC50,HRV type 1A,0.39 µg/mL
same,Activity on Rhinovirus Type 1A SI,HRV type 1A,25.55
same,Activity on Rhinovirus Type 2 EC50,HRV type 2,0.5 µg/mL
same,Activity on Rhinovirus Type 2 SI,HRV type 2,>2
same,Activity on Rhinovirus Type 1A MTC,[1],10.00
CCON=C(C)c1cc(OC)c(OCCC2CCN(c3ccc(Cl)nn3)CC2)c(OC)c1 [Compound 6],Activity on Rhinovirus Type 1A EC50,HRV type 1A,0.06 µg/mL
same,Activity on Rhinovirus Type 1A SI,HRV type 1A,>167.09
same,Activity on Rhinovirus Type 2 EC50,HRV type 2,0.1 µg/mL
same,Activity on Rhinovirus Type 2 SI,HRV type 2,>500
same,Activity on Rhinovirus Type 1A MTC,[1],>10.00
CON=C(C)c1ccc(OCCC2CCN(c3ccc(C)nn3)CC2)cc1 [Compound 9],Activity on Rhinovirus Type 1A EC50,HRV type 1A,<0.0032 µg/mL
same,Activity on Rhinovirus Type 1A SI,HRV type 1A,>312
same,Activity on Rhinovirus Type 2 EC50,HRV type 2,0.08 µg/mL
same,Activity on Rhinovirus Type 2 SI,HRV type 2,>13
same,Activity on Rhinovirus Type 1A MTC,[1],>1
CCC(=NOC)c1ccc(OCCC2CCN(c3ccc(Cl)nn3)CC2)cc1 [Compound 10],Activity on Rhinovirus Type 1A EC50,HRV type 1A,0.0142 µg/mL
same,Activity on Rhinovirus Type 1A SI,HRV type 1A,>70.54
same,Activity on Rhinovirus Type 2 EC50,HRV type 2,0.4 µg/mL
same,Activity on Rhinovirus Type 2 SI,HRV type 2,>3
same,Activity on Rhinovirus Type 1A MTC,[1],>1
CC(C)ON=Cc1ccc(OCCC2CCN(c3ccc(Cl)nn3)CC2)cc1 [Compound 12],Activity on Rhinovirus Type 1A EC50,HRV type 1A,0.00355 µg/mL
same,Activity on Rhinovirus Type 1A SI,HRV type 1A,>273.7
same,Activity on Rhinovirus Type 2 EC50,HRV type 2,0.02 µg/mL
same,Activity on Rhinovirus Type 2 SI,HRV type 2,50
same,Activity on Rhinovirus Type 1A MTC,[1],>1
N#CCON=Cc1ccc(OCCC2CCN(c3ccc(Cl)nn3)CC2)cc1 [Compound 14],Activity on Rhinovirus Type 1A EC50,HRV type 1A,<0.0032 µg/mL
same,Activity on Rhinovirus Type 1A SI,HRV type 1A,>312
same,Activity on Rhinovirus Type 2 EC50,HRV type 2,0.046 µg/mL
same,Activity on Rhinovirus Type 2 SI,HRV type 2,13
same,Activity on Rhinovirus Type 1A MTC,[1],>1
Clc1ccc(N2CCC(CCOc3ccc(C=NOCc4ccccc4)cc3)CC2)nn1 [Compound 15],Activity on Rhinovirus Type 1A EC50,HRV type 1A,>1.0 µg/mL
same,Activity on Rhinovirus Type 2 EC50,HRV type 2,0.9 µg/mL
same,Activity on Rhinovirus Type 2 SI,HRV type 2,<1
same,Activity on Rhinovirus Type 1A MTC,[1],>1.0
CON=Cc1cccc(OCCC2CCN(c3ccc(Cl)nn3)CC2)c1 [Compound 16],Activity on Rhinovirus Type 1A EC50,HRV type 1A,<0.0032 µg/mL
same,Activity on Rhinovirus Type 1A SI,HRV type 1A,>312
same,Activity on Rhinovirus Type 2 EC50,HRV type 2,<0.001 µg/mL
same,Activity on Rhinovirus Type 2 SI,HRV type 2,>1000
same,Activity on Rhinovirus Type 1A MTC,[1],>1
CON=Cc1ccc(OC)c(OCCC2CCN(c3ccc(Cl)nn3)CC2)c1 [Compound 17],Activity on Rhinovirus Type 1A EC50,HRV type 1A,0.00612 µg/mL
same,Activity on Rhinovirus Type 1A SI,HRV type 1A,>163.2
same,Activity on Rhinovirus Type 2 EC50,HRV type 2,>1 µg/mL
same,Activity on Rhinovirus Type 1A MTC,[1],>1
CON=C(C)c1ccc(OCCC2CCN(c3ccc(Cl)nn3)CC2)c(OC)c1 [Compound 19],Activity on Rhinovirus Type 1A EC50,HRV type 1A,<0.0032 µg/mL
same,Activity on Rhinovirus Type 1A SI,HRV type 1A,>312
same,Activity on Rhinovirus Type 2 EC50,HRV type 2,0.019 µg/mL
same,Activity on Rhinovirus Type 2 SI,HRV type 2,>53
same,Activity on Rhinovirus Type 1A MTC,[1],>1
CCOCCOCCON=Cc1ccc(OCCC2CCN(c3ccc(Cl)nn3)CC2)cc1 [Compound 20],Activity on Rhinovirus Type 1A EC50,HRV type 1A,3.28 µg/mL
same,Activity on Rhinovirus Type 1A SI,HRV type 1A,>15.24
same,Activity on Rhinovirus Type 2 EC50,HRV type 2,3 µg/mL
same,Activity on Rhinovirus Type 2 SI,HRV type 2,1
same,Activity on Rhinovirus Type 1A MTC,[1],>50.00
CCON=Cc1ccc(OCCC2CCN(c3ccc(OCC(F)(F)F)nn3)CC2)cc1 [Compound 21],Activity on Rhinovirus Type 1A EC50,HRV type 1A,>1 µg/mL
same,Activity on Rhinovirus Type 2 EC50,HRV type 2,0.3 µg/mL
same,Activity on Rhinovirus Type 2 SI,HRV type 2,>3
same,Activity on Rhinovirus Type 1A MTC,[1],>1
CCON=Cc1cc(C)c(OCCCCCCc2cc(C)no2)c(C)c1 [Compound 120],Activity on Rhinovirus Type 1A EC50,HRV type 1A,0.04 µg/mL
same,Activity on Rhinovirus Type 1A SI,HRV type 1A,>20
same,Activity on Rhinovirus Type 1A MTC,[1],>1
CCON=Cc1cc(C)c(OCCCCCCCc2cc(C)no2)c(C)c1 [Compound 121],Activity on Rhinovirus Type 1A EC50,HRV type 1A,0.05 µg/mL
same,Activity on Rhinovirus Type 1A SI,HRV type 1A,>16
same,Activity on Rhinovirus Type 1A MTC,[1],>1
CCON=Cc1cc(C)c(OCCCCCc2cc(C)no2)c(C)c1 [Compound 122],Activity on Rhinovirus Type 1A EC50,HRV type 1A,0.181 µg/mL
same,Activity on Rhinovirus Type 1A SI,HRV type 1A,>5
same,Activity on Rhinovirus Type 1A MTC,[1],>1
CCON=Cc1cc(C)c(OCCCCc2cc(C)no2)c(C)c1 [Compound 123],Activity on Rhinovirus Type 1A EC50,HRV type 1A,0.060 µg/mL
same,Activity on Rhinovirus Type 1A SI,HRV type 1A,>16
same,Activity on Rhinovirus Type 1A MTC,[1],>1
Cc1cc(CCCOc2c(C)cc(C=NOCC(F)(F)F)cc2C)on1 [Compound 124],Activity on Rhinovirus Type 1A EC50,HRV type 1A,0.719 µg/mL
same,Activity on Rhinovirus Type 1A SI,HRV type 1A,>1
same,Activity on Rhinovirus Type 1A MTC,[1],>1
CCON=Cc1ccc(OCCC2CCN(c3ccc(CO)nn3)CC2)cc1 [Compound 129],Activity on Rhinovirus Type 1A EC50,HRV type 1A,0.048 µg/mL
same,Activity on Rhinovirus Type 1A SI,HRV type 1A,>20
same,Activity on Rhinovirus Type 1A MTC,[1],>1
CCCON=Cc1cccc(OCCN2CCN(c3ccc(C)nn3)CC2)c1 [Compound 136],Activity on Rhinovirus Type 1A EC50,HRV type 1A,0.598 µg/mL
same,Activity on Rhinovirus Type 1A SI,HRV type 1A,>1
same,Activity on Rhinovirus Type 1A MTC,[1],>1
CCON=Cc1cc(C)c(OCCCc2cc(C3CC3)no2)c(C)c1 [Compound 137],Activity on Rhinovirus Type 1A EC50,HRV type 1A,0.054 µg/mL
same,Activity on Rhinovirus Type 1A SI,HRV type 1A,>18
same,Activity on Rhinovirus Type 1A MTC,[1],>1
CCON=Cc1cc(C)c(OCCCCc2cc(CC)no2)c(C)c1 [Compound 138],Activity on Rhinovirus Type 1A EC50,HRV type 1A,0.07 µg/mL
same,Activity on Rhinovirus Type 1A SI,HRV type 1A,>15
same,Activity on Rhinovirus Type 1A MTC,[1],>1
CCCc1cc(CCCCOc2c(C)cc(C=NOCC)cc2C)on1 [Compound 139],Activity on Rhinovirus Type 1A EC50,HRV type 1A,0.19 µg/mL
same,Activity on Rhinovirus Type 1A SI,HRV type 1A,>5
same,Activity on Rhinovirus Type 1A MTC,[1],>1
CON=Cc1ccc(OCCC2CCCN(c3ccc(Cl)nn3)C2)cc1 (centres unmarked) [Compound 140],Activity on Rhinovirus Type 1A EC50,HRV type 1A,0.016 µg/mL
same,Activity on Rhinovirus Type 1A SI,HRV type 1A,>61
same,Activity on Rhinovirus Type 1A MTC,[1],>1
C=CCON=Cc1ccc(OCCC2CCCN(c3ccc(Cl)nn3)C2)cc1 (centres unmarked) [Compound 141],Activity on Rhinovirus Type 1A EC50,HRV type 1A,0.166 µg/mL
same,Activity on Rhinovirus Type 1A SI,HRV type 1A,>6
same,Activity on Rhinovirus Type 1A MTC,[1],>1
CCON=Cc1ccc(OCCC2CCCN(c3ccc(Cl)nn3)C2)cc1 (centres unmarked) [Compound 142],Activity on Rhinovirus Type 1A EC50,HRV type 1A,0.055 µg/mL
same,Activity on Rhinovirus Type 1A SI,HRV type 1A,>18
same,Activity on Rhinovirus Type 1A MTC,[1],>1
Cc1ccc(N2CCC(CCOc3ccc(C=NOCCF)cc3)CC2)nn1 [Compound 143],Activity on Rhinovirus Type 1A EC50,HRV type 1A,0.020 µg/mL
same,Activity on Rhinovirus Type 1A SI,HRV type 1A,>50
same,Activity on Rhinovirus Type 1A MTC,[1],>1
CCO/N=C/c1ccc(OCCCCCNc2ccc(Cl)nn2)cc1 [Compound 147],Activity on Rhinovirus Type 1A EC50,HRV type 1A,0.194 µg/mL
same,Activity on Rhinovirus Type 1A SI,HRV type 1A,>5
same,Activity on Rhinovirus Type 1A MTC,[1],>1
CCO/N=C/c1ccc(OCCC2CCN(c3cnc4cc(Cl)ccc4n3)CC2)cc1 [Compound 210],Activity on Rhinovirus Type 1A EC50,HRV type 1A,3.96 µg/mL
same,Activity on Rhinovirus Type 1A SI,HRV type 1A,>2.5
same,Activity on Rhinovirus Type 1A MTC,[1],>10
CCO/N=C/c1ccc(Oc2cnc3cc(Cl)ccc3n2)cc1 [Compound 211],Activity on Rhinovirus Type 1A EC50,HRV type 1A,0.07 µg/mL
same,Activity on Rhinovirus Type 1A SI,HRV type 1A,>151
same,Activity on Rhinovirus Type 1A MTC,[1],>10
